Test results from patent US20060079453A1, “Hla binding peptides and their uses” (priority 2002, published 2006).
Read-outs that look alike come from different tables or passages of the source. No end group written: not given here.

Tests used:
Test in all cases: biochemical
Assay type in all cases: binding
[1] = molecular target: HLA-DR DRB1*0101 (DR1) (Homo sapiens, UniProt P01903+P01911, A100R/D57E/F55L/F60I/F76Y/I96L/L162R/M171V/P40L/Q125E/R42F/V115G/Y59C)
[2] = molecular target: HLA-DR DRB4*0101 (DR53) (Homo sapiens, UniProt P01903+P13762, G164S)
[3] = molecular target: HLA-DR DRB3*0101 (DR52) (Homo sapiens, UniProt P01903+P79483)
[4] = molecular target: HLA-DR DRB1*0701 (DR7) (Homo sapiens, UniProt P01903+P01911, A100R/A102G/A103Q/D57E/D86V/E43K/F76Y/K127E/L162R/M171V/P40G/Q125H/Q99D/R33Q/R42Y/R54Q/S133A/S66F/T210M/V115G/Y107V/Y59L/Y89S)
[5] = molecular target: HLA-DR DRB1*0901 (DR9) (Homo sapiens, UniProt P01903+P01911, A100R/A103E/D57H/D86V/F55Y/F60I/F76Y/I96F/K127E/L162R/M171V/P40D/Q125H/Q99R/R33Q/R42F/S133A/S66N/T210M/V115G/W38K/Y107V/Y59G/Y89S); conditions: DRB1 *0901
[6] = molecular target: HLA-DR DRB1*1101 (DR11) (Homo sapiens, UniProt P01903+P01911, A100R/A169T/A87E/I96F/K41T/L162R/M171V/P40S/Q125H/Q178H/Q39Y/Q99D/R42S/S66Y/T262R/V115G/W38E)
HLA-DR DRB1*1101 (DR11), sequence (P01903 26-254 limits assumed, other chains not shown): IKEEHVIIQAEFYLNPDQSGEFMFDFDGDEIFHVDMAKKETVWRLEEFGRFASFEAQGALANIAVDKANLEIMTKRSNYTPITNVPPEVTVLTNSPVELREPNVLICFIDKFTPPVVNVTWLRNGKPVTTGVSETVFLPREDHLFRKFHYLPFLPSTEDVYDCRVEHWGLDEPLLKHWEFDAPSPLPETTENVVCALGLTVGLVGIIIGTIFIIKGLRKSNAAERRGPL

[7] = molecular target: HLA-DR DRB5*0101 (DR51) (Homo sapiens, UniProt P01903+Q30154)
[8] = molecular target: HLA-DR DRB1*1302 (DR13) (Homo sapiens, UniProt P01903+P01911, A100E/A169T/K41T/L162R/M171V/P40S/Q125H/Q178H/Q39Y/Q99D/R42S/S66N/T262R/V115G/W38E/Y61H)
HLA-DR DRB1*1302 (DR13), sequence (P01903 26-254 limits assumed, other chains not shown): as above

[9] = molecular target: HLA-DR DRB1*0401 (DR4) (Homo sapiens, UniProt P01903+P01911, A100K/A169T/F76Y/I96L/K127E/L162R/M171V/N62H/P40V/Q125Y/R42H/S133A/S149N/S66Y/V115G/V209L/W38E); conditions: DRB1 *0401
[10] = molecular target: HLA-DR DRB1*0301 (DR3) (Homo sapiens, UniProt P01903+P01911, A100K/A102G/A103R/A169T/F55Y/I96L/K41T/L162R/M171V/P40S/Q125H/Q178H/Q39Y/R42S/S66N/T106N/T262R/W38E/Y61H)
HLA-DR DRB1*0301 (DR3), sequence (P01903 26-254 limits assumed, other chains not shown): as above

[11] = molecular target: HLA-DR DRB1*1501 (DR15) (Homo sapiens, UniProt P01903+P01911)

Compound	IC50 ([1]; DRB1 *0101) [nM]	IC50 ([2]; DRB4 *0101) [nM]	IC50 [3] [nM]	IC50 ([4]; DRB1 *0701) [nM]	IC50 [5] [nM]	IC50 ([6]; DRB1 *1101) [nM]	IC50 ([7]; DRB5 *0101) [nM]	IC50 ([8]; DRBI *1302) [nM]	IC50 [9] [nM]	IC50 [10] [nM]	IC50 ([11]; DRBI *1501) [nM]	IC50 [1] [nM]	IC50 [2] [nM]	IC50 [11] [nM]	IC50 [4] [nM]	IC50 [6] [nM]	IC50 [7] [nM]	IC50 [8] [nM]
CC[C@H](C)[C@H](NC(=O)[C@H](Cc1c[nH]cn1)NC(=O)[C@H](CCSC)NC(=O)[C@H](CCCCN)NC(=O)[C@@H](NC(=O)[C@H](CCCCN)NC(=O)[C@H](CCC(N)=O)NC(=O)[C@@H](NC(=O)[C@H](CO)NC(=O)[C@H](Cc1ccccc1)NC(=O)[C@H](CC(N)=O)NC(=O)CNC(=O)[C@@H](N)[C@@H](C)O)[C@@H](C)O)C(C)C)C(=O)N[C@@H](Cc1c[nH]cn1)C(=O)N[C@@H](CO)C(=O)O	11200	508	> 11800	9410	1450	11900	1930	6190	–	–	–	–	–	–	–	–	–	–
CSCC[C@H](NC(=O)[C@H](CC(=O)O)NC(=O)[C@H](Cc1ccc(O)cc1)NC(=O)[C@H](CC(C)C)NC(=O)[C@@H]1CCCN1C(=O)[C@H](Cc1c[nH]cn1)NC(=O)[C@@H]1CCCN1C(=O)[C@H](Cc1ccccc1)NC(=O)[C@H](CO)NC(=O)[C@H](Cc1c[nH]cn1)NC(=O)[C@H](CO)NC(=O)[C@@H](NC(=O)[C@H](CCC(N)=O)NC(=O)[C@H](Cc1ccccc1)NC(=O)[C@@H](N)C(C)C)C(C)C)C(=O)O	16	> 12500	23400	51	17	–	–	83	25	> 75000	2400	–	–	–	–	–	–	–
GAPLGGALRALAHGV	–	–	> 51100	–	–	–	–	–	15000	> 486000	–	68	4890	2070	1420	83	5400	340
CSCC[C@H](NC(=O)[C@@H]1CCCN1C(=O)[C@H](CC(=O)O)NC(=O)[C@@H](N)Cc1ccc(O)cc1)C(=O)N[C@@H](Cc1ccccc1)C(=O)N[C@@H](CCCCN)C(=O)N[C@@H](Cc1ccc(O)cc1)C(=O)N[C@@H](Cc1c[nH]cn1)C(=O)N[C@@H](CC(C)C)C(=O)N[C@H](C(=O)N[C@H](C(=O)N[C@@H](C)C(=O)N[C@@H](CCC(N)=O)C(=O)N[C@H](C(=O)N[C@@H](CCCNC(=N)N)C(=O)O)C(C)C)C(C)C)[C@@H](C)O	9	553	8140	158	–	252	62	1010	19	> 75000	1350	–	–	–	–	–	–	–
CSCC[C@H](NC(=O)[C@@H](N)Cc1c[nH]c2ccccc12)C(=O)N[C@@H](Cc1ccc(O)cc1)C(=O)N[C@@H](Cc1ccc(O)cc1)C(=O)N[C@@H](Cc1c[nH]cn1)C(=O)NCC(=O)N[C@@H](CCC(N)=O)C(=O)N[C@@H](CCCNC(=N)N)C(=O)N[C@@H](Cc1c[nH]cn1)C(=O)N[C@@H](CO)C(=O)N[C@@H](CC(=O)O)C(=O)N[C@@H](CCC(=O)O)C(=O)N[C@@H](Cc1c[nH]cn1)C(=O)N[C@@H](Cc1c[nH]cn1)C(=O)N[C@@H](Cc1c[nH]cn1)C(=O)O	≥ 50000	–	> 7690	> 250000	–	> 10000	> 5000	–	–	> 900000	–	–	–	–	–	–	–	–
AATYNFAVLKLMGRGTKF	–	1220	70000	–	–	17	18	–	–	> 52900	–	–	–	–	–	–	–	–
CC[C@H](C)[C@H](NC(=O)[C@H](CC(N)=O)NC(=O)[C@H](CCC(=O)O)NC(=O)[C@H](C)NC(=O)[C@H](CCCCN)NC(=O)[C@H](CC(C)C)NC(=O)[C@H](CCC(=O)O)NC(=O)[C@H](CC(=O)O)NC(=O)[C@@H](N)CC(C)C)C(=O)N[C@@H](CCCCN)C(=O)N[C@@H](CCCCN)C(=O)N[C@@H](Cc1ccccc1)C(=O)N[C@@H](CC(C)C)C(=O)N[C@@H](Cc1ccc(O)cc1)C(=O)N[C@@H](CC(N)=O)C(=O)O	1140	788	548	7470	12800	324	150	–	4840	–	–	–	–	–	–	–	–	–
